Measurements as given in ChEMBL document CHEMBL1201862, “PubChem BioAssay data set” (2004).
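All cell lines were grown in 96-well plates and treated with compound for 48 hours. Here, GI50 denotes the concentration required for 50% inhibition of growth.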 Activity calls are given as the source filed them. No stated cut-off is given here; in the data, active = GI50 up to about 1.1 µM and inactive = higher.

Tests used:
Assay in all cases: NCI-60 cell line screen, 48 h
SF-295 = test system: SF-295
RPMI-8226 = test system: RPMI-8226
COLO 205 = test system: COLO 205
MOLT-4 = test system: MOLT-4
SK-OV-3 = test system: SK-OV-3
ACHN = test system: ACHN
HOP-92 = test system: HOP-92
OVCAR-8 = test system: OVCAR-8
NCI/ADR-RES = test system: NCI/ADR-RES
MCF7 = test system: MCF7
A549 = test system: A549
SK-MEL-2 = test system: SK-MEL-2
HCC 2998 = test system: HCC 2998
MDA-MB-435 = test system: MDA-MB-435
LOX IMVI = test system: LOX IMVI
CAKI-1 = test system: CAKI-1
SK-MEL-28 = test system: SK-MEL-28
HCT-15 = test system: HCT-15
K562 = test system: K562
U-251 = test system: U-251
UO-31 = test system: UO-31
SK-MEL-5 = test system: SK-MEL-5
SNB-19 = test system: SNB-19
SF-539 = test system: SF-539
NCI-H23 = test system: NCI-H23
SF-268 = test system: SF-268
PC-3 = test system: PC-3
KM12 = test system: KM12
BT-549 = test system: BT-549
CCRF-CEM = test system: CCRF-CEM
OVCAR-4 = test system: OVCAR-4
Hs-578T = test system: Hs-578T
OVCAR-3 = test system: OVCAR-3
UACC-62 = test system: UACC-62
HT-29 = test system: HT-29
T47D = test system: T47D
EKVX = test system: EKVX
SW-620 = test system: SW-620
SNB-75 = test system: SNB-75
TK-10 = test system: TK-10
MDA-N = test system: MDA-N
RXF 393 = test system: RXF 393
MDA-MB-231 = test system: MDA-MB-231
NCI-H522 = test system: NCI-H522
DU-145 = test system: DU-145
HL-60 = test system: HL-60
HCT-116 = test system: HCT-116
NCI-H460 = test system: NCI-H460
UACC-257 = test system: UACC-257
SR = test system: SR
OVCAR-5 = test system: OVCAR-5
IGROV-1 = test system: IGROV-1
SN12C = test system: SN12C
M14 = test system: M14
A498 = test system: A498
Malme-3M = test system: Malme-3M
HOP-62 = test system: HOP-62
786-0 = test system: 786-0
NCI-H226 = test system: NCI-H226

CCOC(=O)NC(Nc1ncccn1)(C(=O)OCC)C(F)(F)F (configuration not stated)
GI50 (SF-295): > 100 µM (inactive)
GI50 (RPMI-8226): > 100 µM (inactive)
GI50 (COLO 205): > 100 µM (inactive)
GI50 (MOLT-4): > 100 µM (inactive)
GI50 (SK-OV-3): > 10 µM (inactive)
GI50 (ACHN): > 100 µM (inactive)
GI50 (HOP-92): > 100 µM (inactive)
GI50 (OVCAR-8): > 100 µM (inactive)
GI50 (NCI/ADR-RES): > 100 µM (inactive)
GI50 (MCF7): > 100 µM (inactive)
GI50 (A549): > 100 µM (inactive)
GI50 (SK-MEL-2): > 100 µM (inactive)
GI50 (HCC 2998): > 100 µM (inactive)
GI50 (MDA-MB-435): > 100 µM (inactive)
GI50 (LOX IMVI): > 100 µM (inactive)
GI50 (CAKI-1): > 100 µM (inactive)
GI50 (SK-MEL-28): > 100 µM (inactive)
GI50 (HCT-15): > 100 µM
GI50 (K562): > 100 µM (inactive)
GI50 (U-251): > 100 µM (inactive)
GI50 (UO-31): > 100 µM (inactive)
GI50 (SK-MEL-5): > 100 µM (inactive)
GI50 (SNB-19): > 100 µM (inactive)
GI50 (SF-539): > 100 µM (inactive)
GI50 (NCI-H23): > 100 µM (inactive)
GI50 (SF-268): > 100 µM (inactive)
GI50 (PC-3): > 100 µM (inactive)
GI50 (KM12): > 100 µM (inactive)
GI50 (BT-549): > 100 µM (inactive)
GI50 (CCRF-CEM): > 100 µM (inactive)
GI50 (OVCAR-4): > 100 µM (inactive)
GI50 (Hs-578T): > 100 µM (inactive)
GI50 (OVCAR-3): > 100 µM (inactive)
GI50 (UACC-62): 63.4 µM (inactive)
GI50 (HT-29): > 100 µM (inactive)
GI50 (T47D): 56 µM (inactive)
GI50 (EKVX): > 100 µM (inactive)
GI50 (SW-620): > 100 µM (inactive)
GI50 (SNB-75): > 100 µM (inactive)
GI50 (TK-10): > 100 µM (inactive)
GI50 (MDA-N): > 100 µM (inactive)
GI50 (RXF 393): > 100 µM (inactive)
GI50 (MDA-MB-231): > 100 µM (inactive)
GI50 (NCI-H522): > 100 µM (inactive)
GI50 (DU-145): > 100 µM (inactive)
GI50 (HL-60): > 100 µM (inactive)
GI50 (HCT-116): > 100 µM (inactive)
GI50 (NCI-H460): > 100 µM (inactive)
GI50 (UACC-257): > 100 µM (inactive)
GI50 (SR): > 100 µM (inactive)
GI50 (OVCAR-5): > 100 µM (inactive)
GI50 (IGROV-1): > 100 µM (inactive)
GI50 (SN12C): > 100 µM (inactive)
GI50 (M14): > 100 µM (inactive)

C=C1CC(Cn2cc(Br)c(=O)[nH]c2=O)(c2ccc(-c3ccccc3)cc2)OC1=O (configuration not stated)
GI50 (SF-295): 4.45 µM (inactive)
GI50 (RPMI-8226): 0.128 µM (active)
GI50 (COLO 205): 0.621 µM (active)
GI50 (MOLT-4): 0.552 µM (active)
GI50 (SK-OV-3): 4.31 µM (inactive)
GI50 (ACHN): 1.83 µM (inactive)
GI50 (HOP-92): 0.0308 µM (active)
GI50 (OVCAR-8): 0.466 µM (active)
GI50 (NCI/ADR-RES): 1.41 µM (inactive)
GI50 (MCF7): 0.427 µM (active)
GI50 (A549): 5.31 µM (inactive)
GI50 (SK-MEL-2): 1.49 µM (inactive)
GI50 (HCC 2998): 1.66 µM (inactive)
GI50 (MDA-MB-435): 1.35 µM (inactive)
GI50 (LOX IMVI): 0.582 µM (active)
GI50 (CAKI-1): 1.13 µM (inactive)
GI50 (A498): 0.776 µM (active)
GI50 (SK-MEL-28): 0.221 µM (active)
GI50 (HCT-15): 1.61 µM
GI50 (K562): 0.2 µM (active)
GI50 (U-251): 5.92 µM (inactive)
GI50 (UO-31): 2.03 µM (inactive)
GI50 (SK-MEL-5): 1.27 µM (inactive)
GI50 (SNB-19): 12.6 µM (inactive)
GI50 (SF-539): 1.37 µM (inactive)
GI50 (NCI-H23): 0.993 µM (active)
GI50 (SF-268): 2.02 µM (inactive)
GI50 (PC-3): 1.55 µM (inactive)
GI50 (KM12): 1.52 µM (inactive)
GI50 (Malme-3M): 1.56 µM (inactive)
GI50 (BT-549): 1.66 µM (inactive)
GI50 (HOP-62): 4.23 µM (inactive)
GI50 (CCRF-CEM): 0.165 µM (active)
GI50 (OVCAR-4): 2.13 µM (inactive)
GI50 (Hs-578T): 2.74 µM (inactive)
GI50 (OVCAR-3): 1.63 µM (inactive)
GI50 (UACC-62): 1.12 µM (active)
GI50 (HT-29): 0.469 µM (active)
GI50 (786-0): 1.02 µM (active)
GI50 (T47D): 2 µM (inactive)
GI50 (EKVX): 2.16 µM (inactive)
GI50 (SW-620): 0.341 µM (active)
GI50 (SNB-75): 4.49 µM (inactive)
GI50 (TK-10): 0.432 µM (active)
GI50 (MDA-N): 0.83 µM (active)
GI50 (MDA-MB-231): 3.08 µM (inactive)
GI50 (NCI-H522): 0.655 µM (active)
GI50 (DU-145): 1.66 µM (inactive)
GI50 (HL-60): 0.0975 µM (active)
GI50 (NCI-H226): 1.83 µM (inactive)
GI50 (HCT-116): 0.301 µM (active)
GI50 (NCI-H460): 6.25 µM (inactive)
GI50 (UACC-257): 0.836 µM (active)
GI50 (SR): 0.32 µM (active)
GI50 (OVCAR-5): 4.8 µM (inactive)
GI50 (IGROV-1): 1.4 µM (inactive)
GI50 (SN12C): 1.9 µM (inactive)
GI50 (M14): 1.43 µM (inactive)
